Experimental findings from ChEMBL document CHEMBL1921687, “(2-Benzyl-2,3,4,5-tetrahydro-1H-pyrido[4,3-b]indol-8-yl)-acetic acid: an aldose reductase inhibitor and antioxidant of zwitterionic nature” (Bioorg Med Chem, 2011) are described below.

Calls of active or inactive are those of the source. The rule behind the calls is not given here.

Test [1] relates to Erythrocyte. As to the kind of experiment: Antioxidant activity in Wistar rat erythrocytes assessed as prolongation of initial inhibition period-lag phase of AAPH-induced hemolysis at 100 uM preincubated for 30 mins before induction measured up to 5 hrs by spectrophotometry. It is filed as functional, cell-based.
Test [2] has as its system Erythrocyte. The test is described as follows: Antioxidant activity in Wistar rat erythrocytes assessed as prolongation of initial inhibition period-lag phase of t-BuOOH-induced hemolysis at 10 mM preincubated for 30 mins before induction measured up to 5 hrs by spectrophotometry. It is filed as functional, cell-based.
Test [3] deals with Erythrocyte. The test is described as follows: Antioxidant activity in Wistar rat erythrocytes assessed as prolongation of initial inhibition period-lag phase of t-BuOOH-induced hemolysis at 100 uM treated 30 mins after induction measured up to 5 hrs by spectrophotometry. It counts as functional, cell-based.
Test [4] concerns Erythrocyte. The test is described as follows: Antioxidant activity in Wistar rat erythrocytes assessed as prolongation of initial inhibition period-lag phase of t-BuOOH-induced hemolysis at 2.5 uM preincubated for 30 mins before induction measured up to 5 hrs by spectrophotometry. It counts as functional, cell-based.
The test system of test [5] is Rattus norvegicus. As to the kind of experiment: Inhibition of sorbitol accumulation in streptozotocin-induced diabetic rat erythrocytes at 25 mg/kg intra-gastrically bid for 4 days followed by single dose on 5th day measured after 3 hrs final dose by resazurin reduction assay. It is filed as functional, organism-based. Further details: dose 25 mg/kg. A general note: The colour change of resazurin is a common sign of viable cells or microbes.

Test [6] has as its system Rattus norvegicus. The test is described as follows: Antidiabetic activity in streptozotocin-induced diabetic rat assessed as reduction in blood glucose level at 25 mg/kg intra-gastrically administered bid for 4 days followed by single dose on 5th day measured after 3 hrs final dose. Further details: dose 25 mg/kg. It counts as functional, organism-based.
Test [7] concerns the target Aldo-keto reductase family 1 member B1 (Homo sapiens, UniProt P15121). The test is described as follows: Inhibition of aldose reductase.
The subject of test [8] is Erythrocyte. The test is described as follows: Antioxidant activity in Wistar rat erythrocytes assessed as prolongation of initial inhibition period-lag phase of t-BuOOH-induced hemolysis at 100 uM preincubated for 30 mins before induction measured up to 5 hrs by spectrophotometry. It is filed as functional, cell-based.

Broadly, the IC50 is the point on the concentration scale where inhibition reaches its midpoint.

Consider `Cc1c(C)c2c(c(C)c1O)CCC(C)(C(=O)O)O2` (centres undefined), for which, in the test on Erythrocyte [1], the outcome was Active.

Regarding `NCCC(=O)N[C@@H](Cc1c[nH]cn1)C(=O)O`, the result in the test on Erythrocyte [2] was Active.

`O=C(O)Cc1ccc2[nH]c3c(c2c1)CN(Cc1ccccc1)CC3`: the result with Erythrocyte [3] and with Rattus norvegicus [6] was inactive. In addition, the result with Erythrocyte [4] and in the test with Erythrocyte [1] was Active. Also, in the test with Rattus norvegicus [5], the inhibition entry was “Active”. The same compound registered an IC50 in test [7] of 18.2 µM.

As to `COc1ccc2[nH]cc(CCNC(C)=O)c2c1`, the result in the test on Erythrocyte [8] was inactive.
